Earlier results in patent EP0315648B1 (THE UPJOHN COMPANY, priority 1986, dated 1988).

Settings: Hildebrand solubility coefficient of the solvent (scale of Vaughn)

SMILES	HSC
CC(O)CO (centres unmarked) [propylene glycol]	14
CCCCCCCC/C=C\CCCCCCCCO [oleyl alcohol]	9.8
